Data reported in ChEMBL document CHEMBL1201862, “PubChem BioAssay data set” (2004).
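Five compound concentrations were applied to cells in 96-well plates for 48 hours; endpoints were derived by simple linear interpolation of the resulting dose-response curve. GI50: concentration for 50% inhibition of growth.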 Activity calls are given as the source filed them. No stated cut-off is given here; in the data, active = GI50 up to about 1.1 µM and inactive = higher.

How the values were obtained:
Assay in all cases: growth of human tumour cells (NCI), 48 h
SF-539 = tested on: SF-539
SNB-19 = tested on: SNB-19
T47D = tested on: T47D
UACC-257 = tested on: UACC-257
NCI-H226 = tested on: NCI-H226
LOX IMVI = tested on: LOX IMVI
786-0 = tested on: 786-0
MOLT-4 = tested on: MOLT-4
MDA-MB-435 = tested on: MDA-MB-435
TK-10 = tested on: TK-10
UO-31 = tested on: UO-31
NCI-H23 = tested on: NCI-H23
Malme-3M = tested on: Malme-3M
UACC-62 = tested on: UACC-62
A549 = tested on: A549
M14 = tested on: M14
SF-268 = tested on: SF-268
K562 = tested on: K562
SF-295 = tested on: SF-295
NCI-H460 = tested on: NCI-H460
HCT-116 = tested on: HCT-116
SW-620 = tested on: SW-620
U-251 = tested on: U-251
HCT-15 = tested on: HCT-15
SR = tested on: SR
OVCAR-5 = tested on: OVCAR-5
BT-549 = tested on: BT-549
SK-MEL-2 = tested on: SK-MEL-2
EKVX = tested on: EKVX
MCF7 = tested on: MCF7
HT-29 = tested on: HT-29
COLO 205 = tested on: COLO 205
PC-3 = tested on: PC-3
A498 = tested on: A498
HOP-92 = tested on: HOP-92
SNB-75 = tested on: SNB-75
OVCAR-3 = tested on: OVCAR-3
ACHN = tested on: ACHN
KM12 = tested on: KM12
IGROV-1 = tested on: IGROV-1
HCC 2998 = tested on: HCC 2998
Hs-578T = tested on: Hs-578T
SK-MEL-28 = tested on: SK-MEL-28
DU-145 = tested on: DU-145
SK-MEL-5 = tested on: SK-MEL-5
HL-60 = tested on: HL-60
RPMI-8226 = tested on: RPMI-8226
OVCAR-4 = tested on: OVCAR-4
RXF 393 = tested on: RXF 393
CAKI-1 = tested on: CAKI-1
OVCAR-8 = tested on: OVCAR-8
MDA-MB-231 = tested on: MDA-MB-231
CCRF-CEM = tested on: CCRF-CEM
NCI/ADR-RES = tested on: NCI/ADR-RES
SK-OV-3 = tested on: SK-OV-3
HOP-62 = tested on: HOP-62
SN12C = tested on: SN12C
NCI-H522 = tested on: NCI-H522

**Q.** What does the source list for COc1cc(OCc2nc3cc(C(F)(F)F)ccc3nc2-c2ccccc2)cc(OC)c1OC?
**A.** GI50 (SF-539): 45.8 µM (inactive); GI50 (SNB-19): 94.6 µM (inactive); GI50 (T47D): 11.9 µM (inactive); GI50 (UACC-257): > 100 µM (inactive); GI50 (NCI-H226): > 100 µM (inactive); GI50 (LOX IMVI): > 100 µM (inactive); GI50 (786-0): 96.2 µM (inactive); GI50 (MOLT-4): 8.75 µM (inactive); GI50 (MDA-MB-435): > 100 µM (inactive); GI50 (TK-10): 70.3 µM (inactive); GI50 (UO-31): > 100 µM (inactive); GI50 (NCI-H23): 87.3 µM (inactive); GI50 (Malme-3M): > 100 µM (inactive); GI50 (UACC-62): 61.4 µM (inactive); GI50 (A549): 36.9 µM (inactive); GI50 (M14): 45.4 µM (inactive); GI50 (SF-268): > 100 µM (inactive); GI50 (K562): 61.9 µM (inactive); GI50 (SF-295): 47.3 µM (inactive); GI50 (NCI-H460): > 100 µM (inactive); GI50 (HCT-116): 94 µM (inactive); GI50 (SW-620): > 100 µM (inactive); GI50 (U-251): 39.6 µM (inactive); GI50 (HCT-15): > 100 µM; GI50 (SR): 81.5 µM (inactive); GI50 (OVCAR-5): > 100 µM (inactive); GI50 (BT-549): > 100 µM (inactive); GI50 (SK-MEL-2): > 100 µM (inactive); GI50 (EKVX): 91.4 µM (inactive); GI50 (MCF7): 56.4 µM (inactive); GI50 (HT-29): > 100 µM (inactive); GI50 (COLO 205): > 100 µM (inactive); GI50 (PC-3): 98.9 µM (inactive); GI50 (A498): > 100 µM (inactive); GI50 (HOP-92): > 100 µM (inactive); GI50 (SNB-75): 98.9 µM (inactive); GI50 (OVCAR-3): > 100 µM (inactive); GI50 (ACHN): > 100 µM (inactive); GI50 (KM12): > 100 µM (inactive); GI50 (IGROV-1): > 100 µM (inactive); GI50 (HCC 2998): > 100 µM (inactive); GI50 (Hs-578T): 55.6 µM (inactive); GI50 (SK-MEL-28): 65.3 µM (inactive); GI50 (DU-145): 86.9 µM (inactive); GI50 (SK-MEL-5): 17.1 µM (inactive); GI50 (HL-60): > 100 µM (inactive); GI50 (RPMI-8226): 15.5 µM (inactive); GI50 (OVCAR-4): 95.3 µM (inactive); GI50 (RXF 393): 19.5 µM (inactive); GI50 (CAKI-1): > 100 µM (inactive); GI50 (OVCAR-8): 64.3 µM (inactive); GI50 (MDA-MB-231): > 100 µM (inactive); GI50 (CCRF-CEM): > 100 µM (inactive); GI50 (NCI/ADR-RES): 61.2 µM (inactive); GI50 (SK-OV-3): > 100 µM (inactive)

**Q.** O=C(C(Cl)=C(Nc1ccccc1)Nc1ccccc1)C(Cl)Cl was tested. Which GI50 (HOP-62) did it give?
**A.** 15.5 µM (inactive)

**Q.** And the GI50 (SF-539)?
**A.** 24.6 µM (inactive)

**Q.** And the GI50 (SNB-19)?
**A.** 26.2 µM (inactive)

**Q.** And the GI50 (T47D)?
**A.** 12.4 µM (inactive)

**Q.** And the GI50 (UACC-257)?
**A.** 82.8 µM (inactive)

**Q.** What about the GI50 (NCI-H226) of the same compound?
**A.** 39.1 µM (inactive)

**Q.** What about the GI50 (LOX IMVI) of the same compound?
**A.** 13.2 µM (inactive)

**Q.** What about the GI50 (786-0) of the same compound?
**A.** 22.5 µM (inactive)

**Q.** And the GI50 (MOLT-4)?
**A.** 16 µM (inactive)

**Q.** What about the GI50 (MDA-MB-435) of the same compound?
**A.** 10.6 µM (inactive)

**Q.** And the GI50 (TK-10)?
**A.** 40.3 µM (inactive)

**Q.** And the GI50 (UO-31)?
**A.** 33.6 µM (inactive)

**Q.** And the GI50 (NCI-H23)?
**A.** 41.4 µM (inactive)

**Q.** What about the GI50 (Malme-3M) of the same compound?
**A.** 20.3 µM (inactive)

**Q.** And the GI50 (UACC-62)?
**A.** 18.6 µM (inactive)

**Q.** What about the GI50 (A549) of the same compound?
**A.** 38.5 µM (inactive)

**Q.** What about the GI50 (M14) of the same compound?
**A.** 16.8 µM (inactive)

**Q.** What about the GI50 (SF-268) of the same compound?
**A.** 31.7 µM (inactive)

**Q.** What about the GI50 (SN12C) of the same compound?
**A.** 25.5 µM (inactive)

**Q.** What about the GI50 (K562) of the same compound?
**A.** 25.3 µM (inactive)

**Q.** And the GI50 (SF-295)?
**A.** 34 µM (inactive)

**Q.** What about the GI50 (NCI-H460) of the same compound?
**A.** 25.1 µM (inactive)

**Q.** And the GI50 (HCT-116)?
**A.** 17.3 µM (inactive)

**Q.** And the GI50 (SW-620)?
**A.** 18.8 µM (inactive)

**Q.** And the GI50 (HCT-15)?
**A.** 11 µM

**Q.** And the GI50 (SR)?
**A.** 16.5 µM (inactive)

**Q.** And the GI50 (BT-549)?
**A.** 37.2 µM (inactive)

**Q.** And the GI50 (EKVX)?
**A.** 22.6 µM (inactive)

**Q.** What about the GI50 (MCF7) of the same compound?
**A.** 23.9 µM (inactive)

**Q.** What about the GI50 (HT-29) of the same compound?
**A.** 21.2 µM (inactive)

**Q.** What about the GI50 (COLO 205) of the same compound?
**A.** 30.6 µM (inactive)

**Q.** And the GI50 (PC-3)?
**A.** 36.9 µM (inactive)

**Q.** What about the GI50 (A498) of the same compound?
**A.** 24.8 µM (inactive)

**Q.** And the GI50 (HOP-92)?
**A.** 21.8 µM (inactive)

**Q.** And the GI50 (NCI-H522)?
**A.** 19.7 µM (inactive)

**Q.** What about the GI50 (OVCAR-3) of the same compound?
**A.** 23 µM (inactive)

**Q.** What about the GI50 (ACHN) of the same compound?
**A.** 27.5 µM (inactive)

**Q.** And the GI50 (KM12)?
**A.** 39.1 µM (inactive)

**Q.** And the GI50 (IGROV-1)?
**A.** 32.1 µM (inactive)

**Q.** And the GI50 (HCC 2998)?
**A.** 19 µM (inactive)

**Q.** And the GI50 (Hs-578T)?
**A.** > 100 µM (inactive)

**Q.** What about the GI50 (SK-MEL-28) of the same compound?
**A.** 33.2 µM (inactive)

**Q.** What about the GI50 (DU-145) of the same compound?
**A.** 51.2 µM (inactive)

**Q.** What about the GI50 (SK-MEL-5) of the same compound?
**A.** 14.9 µM (inactive)

**Q.** What about the GI50 (HL-60) of the same compound?
**A.** 17.4 µM (inactive)

**Q.** What about the GI50 (RPMI-8226) of the same compound?
**A.** 29.6 µM (inactive)

**Q.** What about the GI50 (OVCAR-4) of the same compound?
**A.** 36.1 µM (inactive)

**Q.** What about the GI50 (RXF 393) of the same compound?
**A.** 14.6 µM (inactive)

**Q.** And the GI50 (CAKI-1)?
**A.** 18.8 µM (inactive)

**Q.** And the GI50 (OVCAR-8)?
**A.** 17.3 µM (inactive)

**Q.** What about the GI50 (MDA-MB-231) of the same compound?
**A.** 40.5 µM (inactive)

**Q.** What about the GI50 (CCRF-CEM) of the same compound?
**A.** 28.5 µM (inactive)

**Q.** And the GI50 (NCI/ADR-RES)?
**A.** 40.6 µM (inactive)

**Q.** And the GI50 (SK-OV-3)?
**A.** 37.6 µM (inactive)
